In patent publication US8933110B2, “Hepatitis C virus inhibitors” (Enanta Pharmaceuticals, Inc., priority 2010, dated 2015) one finds EC50 data, which are given here for 15 compounds.

Where two headings read alike, the source gives them in different places.

This test relates to HCV 1b genotype replicon. Nature of the test: HCV replicon assay (qRT-PCR or luciferase), genotype 1b. Format: cell-based. To be noted: Hepatitis C virus. The source says: HCV replicon cell lines (kindly provided by R. Bartenschlager) isolated from colonies as described by Lohman et al. (Lohman et al. (1999) Science 285: 110-113, expressly incorporated by reference in its entirety) and used for all experiments. The HCV replicon has the nucleic acid sequence set forth in EMBL Accession No.: AJ242651, the coding sequence of which is from nucleotides 1801 to 8406.
The coding sequence of the published HCV replicon was synthesized and subsequently assembled in a modified plasmid pBR322 (Promega, Madison, Wis.) using standard molecular biology techniques. One replicon cell line (“SGR 11-7”) stably expresses HCV replicon RNA which consists of (i) the HCV 5′UTR fused to the first 12 amino acids of the capsid protein, (ii) the neomycin phosphotransferase gene (neo), (iii) the IRES from encephalomyocarditis virus (EMCV) and (iv) HCV NS2 to NS5B genes and the HCV 3′UTR. Another replicon cell line (“Huh-luc/neo-ET”) described by Vrolijk et. al. (Vrolijk et. al. (2003) Journal of Virological Methods 110:201-209, expressly incorporated by reference in its entirety) stably expresses HCV replicon RNA which consists of (i) the HCV 5′UTR fused to the first 12 amino acids of the capsid protein, (ii) the firefly luciferase reporter gene, (iii) the ubiquitin gene, (iv) the neomycin phosphotransferase gene (neo), (v) the IRES from encephalomyocarditis virus (EMCV) and (vi) HCV NS3 to NS5B genes that harbor cell culture adaptive mutations (E1202G, T12801, K1846T) and the HCV 3′UTR.
These cell lines are maintained at 37° C., 5% CO2, 100% relative humidity in DMEM (Cat#11965-084, Invitrogen), with 10% fetal calf serum (“FCS”, Invitrogen), 1% non-essential amino acids (Invitrogen), 1% of Glutamax (Invitrogen), 1% of 100× penicillin/streptomycin (Cat#15140-122, Invitrogen) and Geneticin (Cat#10131-027, Invitrogen) at 0.75 mg/ml or 0.5 mg/ml for 11-7 and Huh-luc/neo-ET cells, respectively.
EC50 values of single agent compounds were determined by HCV RNA detection using quantitative RT-PCR, according to the manufacturer's instructions, with a TAQMAN® One-Step RT-PCR Master Mix Reagents Kit (Cat#AB 4309169, Applied Biosystems) on an ABI Model 7500 thermocycler. EC50 values of combinations are similarly determined by HCV RNA detection using quantitative RT-PCR. The TAQMAN primers to use for detecting and quantifying HCV RNA obtained from Integrated DNA Technologies. HCV RNA is normalized to GAPDH RNA levels in drug-treated cells, which is detected and quantified using the Human GAPDH Endogenous Control Mix (Applied Biosystems, AB 4310884E). Total cellular RNA is purified from 96-well plates using the RNAqueous 96 kit (Ambion, Cat#AM1812). Chemical agent cytotoxicity is evaluated using an MTS assay according to the manufacturer's directions (Promega).
Since clinical drug resistance often develops in viral infections following single agent therapies, there is a need to assess the additive, antagonistic, or synergistic properties of combination therapies. We use the HCV replicon system to assess the potential use of the compound of the present invention or in combination therapies with Interferon alpha, cyclosporine analogs and inhibitors targeting other HCV proteins. The acute effects of a single or combinations of drugs are studied in the “Huh-luc/neo-ET” replicon with each chemical agent titrated in an X or Y direction in a 6 point two-fold dilution curve centered around the EC50 of each drug. Briefly, replicon cells are seeded at 7,000 cells per well in 90 ul DMEM (without phenol red, Invitrogen Cat.#31053-036) per well with 10% FCS, 1% non-essential amino acids, 1% of Glutamax and 1% of 100× penicillin/streptomycin and incubated overnight at 37° C., 5% CO2, 100% relative humidity. […]
A general note: A replicon is a self-replicating genome or part of one, used to study replication in cells.

Where [1] appears, read: read-out: Genotype-1b replicon EC50 Range.
[2] abbreviates: read-out: Genotype-1b replicon EC50.

In the case of `COC(=O)N[C@H]1CCCCCCCOCc2[nH]c(nc2-c2ccc(-c3ccc(-c4c[nH]c([C@@H]5CCCN5C(=O)[C@@H](NC(=O)OC)C(C)C)n4)cc3)cc2)[C@@H]2CCCN2C1=O` [Example 368], under setting [1], the EC50 was < 0.1 nM.

With `COC(=O)N[C@H]1Cc2cc(on2)COCc2[nH]c(nc2-c2ccc(-c3ccc(-c4c[nH]c([C@@H]5CCCN5C(=O)[C@@H](NC(=O)OC)C(C)C)n4)cc3)cc2)[C@@H]2CCCN2C1=O` [Example 333], the EC50 reads like this: under setting [2], 0.083 nM; under setting [1], < 0.1 nM.

For the compound `COC(=O)N[C@H]1CCCCOCc2[nH]c(nc2-c2ccc(-c3ccc(-c4nc5[nH]c4COCCCC[C@H](NC(=O)OC)C(=O)N4CCC[C@@H]54)cc3)cc2)[C@@H]2CCCN2C1=O` [Example 336], the EC50 is 0.175 nM under setting [2] and 0.1 to 1 nM under setting [1].

As to `COC(=O)N[C@H]1COCCCCOCc2[nH]c(nc2-c2ccc(-c3ccc(-c4c[nH]c([C@@H]5CCCN5C(=O)[C@@H](NC(=O)OC)C(C)C)n4)cc3)cc2)[C@@H]2CCCN2C1=O` [Example 353], the EC50 runs as follows: under setting [2], 0.023 nM; under setting [1], < 0.1 nM.

For `COC(=O)N[C@H]1CCCCCCOCc2[nH]c(nc2-c2ccc(-c3ccc(-c4c[nH]c([C@@H]5CCCN5C(=O)[C@@H](NC(=O)OC)C(C)C)n4)cc3)cc2)[C@@H]2CCCN2C1=O` [Example 366], the EC50 under setting [1] was < 0.1 nM.

As to `COC(=O)N[C@H](C(=O)N1CCC[C@H]1c1nc(-c2ccc(-c3ccc(-c4nc5[nH]c4COC/C=C/[C@H](C)[C@H](NC(=O)OC)C(=O)N4CCC[C@@H]54)cc3)cc2)c[nH]1)C(C)C` [Example 318], under setting [1], the EC50 lay in the range of 0.1 to 1 nM.

Regarding `COC(=O)N[C@H]1CCCCOCc2[nH]c(nc2-c2ccc(-c3ccc(-c4c[nH]c([C@@H]5CC6(CC6)CN5C(=O)[C@@H](NC(=O)OC)C(C)C)n4)cc3)cc2)[C@@H]2CCCN2C1=O` [Example 258], the EC50 under setting [2] amounted to 0.014 nM and the EC50 under setting [1] is < 0.1 nM.

As for `COC(=O)N[C@H]1C/C=C/COCc2[nH]c(nc2-c2ccc(-c3ccc(-c4c[nH]c([C@@H]5CCCN5C(=O)[C@@H](NC(=O)OC)C(C)C)n4)cc3)cc2)[C@@H]2CCCN2C1=O` [Example 344], the EC50 by setting is: under setting [2], 0.047 nM; under setting [1], < 0.1 nM.

On to `COC(=O)N[C@H]1CCCCC/C=C\COCc2[nH]c(nc2-c2ccc(-c3ccc(-c4c[nH]c([C@@H]5CCCN5C(=O)[C@@H](NC(=O)OC)C(C)C)n4)cc3)cc2)[C@@H]2CCCN2C1=O` [Example 355], for which the EC50 under setting [1] was < 0.1 nM.

On to `COC(=O)N[C@H]1CCCCOCc2[nH]c(nc2-c2ccc(-c3ccc(-c4c[nH]c([C@@H]5CCCN5C(=O)[C@@H](NC(=O)OC)C(C)C)n4)cc3)cc2)[C@@H]2CCCN2C1=O` [Example 83], for which the EC50 under setting [1] is < 0.1 nM.

On to `COC(=O)N[C@H](C(=O)N1CCC[C@H]1c1nc(-c2ccc(-c3ccc(-c4nc5[nH]c4COCCC[C@H](C)[C@H](NC(=O)OC)C(=O)N4CCC[C@@H]54)cc3)cc2)c[nH]1)C(C)C` [Example 317], for which the EC50 under setting [1] is < 0.1 nM.

`COC(=O)N[C@H]1CCCCCCCCOCc2[nH]c(nc2-c2ccc(-c3ccc(-c4c[nH]c([C@@H]5CCCN5C(=O)[C@@H](NC(=O)OC)C(C)C)n4)cc3)cc2)[C@@H]2CCCN2C1=O` [Example 356]: the EC50 under setting [1] was < 0.1 nM.

Regarding `COC(=O)N[C@H]1CCCCCOCc2[nH]c(nc2-c2ccc(-c3ccc(-c4c[nH]c([C@@H]5CCCN5C(=O)[C@@H](NC(=O)OC)C(C)C)n4)cc3)cc2)[C@@H]2CCCN2C1=O` [Example 322], the EC50 under setting [1] is < 0.1 nM.

With `COC(=O)N[C@H]1C/C=C/COCc2[nH]c(nc2-c2ccc(-c3ccc(-c4c[nH]c([C@@H]5CCCN5C(=O)[C@@H](NC(=O)OC)C(C)C)n4)cc3)cc2)CN(C)C1=O` [Example 359], under setting [1], the EC50 was > 1 nM.

Turning to `COC(=O)N[C@H](C(=O)N1CCC[C@H]1c1nc(-c2ccc(-c3ccc(-c4nc5[nH]c4COCCCCO[C@H](C)[C@H](NC(=O)OC)C(=O)N4CCC[C@@H]54)cc3)cc2)c[nH]1)C(C)C` [Example 349], the EC50 under setting [1] was < 0.1 nM.

Usually EC50 stands for the concentration giving half of the maximal effect.
